Source: the OPERA property sets (Mansouri et al. 2018)
In brackets after ≈: the same amount, converted by molar mass.

Conditions: not given
`Clc1ccc(Oc2c(Cl)ccc(Cl)c2Cl)c(Cl)c1Cl` gave a logP of 6.47. `Clc1ccc(Oc2ccc(Cl)c(Cl)c2)c(Cl)c1` gave a logP of 6.13. `Clc1c(Cl)c(Cl)c(Oc2c(Cl)c(Cl)c(Cl)c(Cl)c2Cl)c(Cl)c1Cl` showed a logP of 8.16. In the case of `Clc1ccc(Oc2ccccc2Cl)cc1Cl`, the logP is reported as 5.5. `Clc1ccc(Oc2ccccc2)cc1` gave a logP of 4.7. With `Clc1cccc(Oc2cc(Cl)c(Cl)cc2Cl)c1` the logP was 6.14. With `Clc1ccc(Oc2c(Cl)ccc(Cl)c2Cl)c(Cl)c1` the logP was 6.06. Work on `Clc1ccc(Oc2cc(Cl)c(Cl)c(Cl)c2)cc1` yielded a logP of 6.3. With `Clc1ccc(Oc2cc(Cl)ccc2Cl)cc1` the logP was 5.66. For `Clc1ccc(Oc2cc(Cl)c(Cl)c(Cl)c2)c(Cl)c1`, the logP was 6.63. For `Clc1ccc(Oc2ccccc2)cc1Cl`, the logP was 4.99. Work on `Clc1cc(Cl)c(Oc2ccc(Cl)c(Cl)c2)c(Cl)c1` yielded a logP of 6.44. `Clc1ccc(Oc2cc(Cl)c(Cl)cc2Cl)cc1Cl` gave a logP of 6.6. `Clc1cc(Cl)c(Oc2cc(Cl)c(Cl)c(Cl)c2Cl)cc1Cl` gave a logP of 7.46. `Clc1ccc(Cl)c(Oc2cc(Cl)c(Cl)cc2Cl)c1` gave a logP of 6.22. `Clc1ccc(Oc2c(Cl)cc(Cl)c(Cl)c2Cl)c(Cl)c1` gave a logP of 6.84. With `Clc1ccc(Oc2ccc(Cl)c(Cl)c2)cc1` the logP was 5.88. Work on `Clc1cc(Cl)c(Cl)c(Oc2ccc(Cl)c(Cl)c2)c1` yielded a logP of 6.52. `Clc1cccc(Oc2ccccc2)c1Cl` showed a logP of 5. With `Clc1ccc(Oc2c(Cl)c(Cl)c(Cl)c(Cl)c2Cl)cc1` the logP was 6.95. In the case of `Clc1ccc(Cl)c(Oc2ccccc2)c1Cl`, the logP is reported as 5.35. Molecule `Clc1ccc(Oc2c(Cl)c(Cl)cc(Cl)c2Cl)cc1` has a logP of 6.41. For `Clc1cc(Oc2cc(Cl)c(Cl)c(Cl)c2Cl)cc(Cl)c1Cl`, the logP was 7.55. Work on `Clc1ccc(Oc2c(Cl)ccc(Cl)c2Cl)cc1Cl` yielded a logP of 6.31. In the case of `Clc1ccc(Oc2cc(Cl)c(Cl)c(Cl)c2Cl)cc1`, the logP is reported as 6.61. `Clc1cccc(Oc2ccc(Cl)c(Cl)c2Cl)c1` showed a logP of 6.07. Work on `Clc1ccc(Oc2ccccc2)c(Cl)c1` yielded a logP of 4.93. Molecule `Clc1ccc(Oc2c(Cl)c(Cl)cc(Cl)c2Cl)cc1Cl` has a logP of 6.78. Work on `Clc1ccc(Oc2cc(Cl)c(Cl)cc2Cl)cc1` yielded a logP of 5.99. With `Clc1ccc(Oc2ccc(Cl)c(Cl)c2Cl)cc1Cl` the logP was 6.51. `Clc1cccc(Cl)c1Oc1ccccc1` gave a logP of 4.64. With `Clc1ccccc1Oc1ccccc1` the logP was 4.45. Molecule `Clc1cc(Cl)c(Oc2ccccc2Cl)cc1Cl` has a logP of 5.97. `Clc1ccc(Oc2ccc(Cl)cc2Cl)cc1` gave a logP of 5.53. In the case of `Clc1ccc(Oc2ccc(Cl)c(Cl)c2)cc1Cl`, the logP is reported as 6.36. Molecule `Clc1cc(Cl)cc(Oc2cc(Cl)c(Cl)cc2Cl)c1` has a logP of 6.66. Work on `Clc1cccc(Oc2ccccc2)c1` yielded a logP of 4.75. Molecule `Clc1ccc(Oc2c(Cl)cccc2Cl)cc1` has a logP of 5.3. With `Clc1ccc(Oc2c(Cl)cccc2Cl)c(Cl)c1Cl` the logP was 6.11. `Clc1cc(Cl)c(Oc2ccccc2)c(Cl)c1` gave a logP of 5.32. `Clc1ccc(Oc2cc(Cl)c(Cl)c(Cl)c2Cl)cc1Cl` gave a logP of 7.07. `Clc1cc(Cl)c(Cl)c(Oc2cc(Cl)c(Cl)cc2Cl)c1` showed a logP of 6.65. Work on `Clc1ccc(Oc2c(Cl)c(Cl)c(Cl)c(Cl)c2Cl)c(Cl)c1Cl` yielded a logP of 7.84. `Clc1cc(Oc2cc(Cl)c(Cl)c(Cl)c2Cl)c(Cl)c(Cl)c1Cl` gave a logP of 7.78. `Clc1ccc(Oc2cc(Cl)c(Cl)c(Cl)c2)cc1Cl` gave a logP of 6.83. In the case of `Clc1ccc(Cl)c(Oc2ccccc2)c1`, the logP is reported as 5.13. `Clc1ccc(Oc2cc(Cl)c(Cl)c(Cl)c2Cl)c(Cl)c1Cl` gave a logP of 7.28. In the case of `Clc1ccc(Oc2cc(Cl)c(Cl)c(Cl)c2Cl)c(Cl)c1`, the logP is reported as 6.72. In the case of `Clc1ccc(Oc2cccc(Cl)c2Cl)cc1`, the logP is reported as 5.63. In the case of `Clc1ccc(Oc2cc(Cl)cc(Cl)c2Cl)cc1`, the logP is reported as 6.01. Work on `Clc1ccc(Oc2c(Cl)ccc(Cl)c2Cl)cc1` yielded a logP of 5.64. In the case of `Clc1ccc(Oc2ccc(Cl)cc2Cl)c(Cl)c1`, the logP is reported as 5.95. `Clc1cc(Cl)c(Oc2c(Cl)cccc2Cl)cc1Cl` showed a logP of 5.98. `Clc1ccc(Oc2c(Cl)c(Cl)c(Cl)c(Cl)c2Cl)cc1Cl` gave a logP of 7.31. `Clc1cc(Cl)cc(Oc2ccc(Cl)c(Cl)c2)c1` showed a logP of 6.22. `Clc1cc(Cl)c(Cl)c(Oc2ccccc2)c1Cl` showed a logP of 5.82. With `Clc1cc(Oc2c(Cl)c(Cl)cc(Cl)c2Cl)c(Cl)c(Cl)c1Cl` the logP was 7.63. `Clc1cc(Cl)c(Oc2c(Cl)c(Cl)c(Cl)c(Cl)c2Cl)cc1Cl` showed a logP of 7.81. In the case of `Clc1cc(Oc2c(Cl)ccc(Cl)c2Cl)c(Cl)c(Cl)c1Cl`, the logP is reported as 6.98. Work on `Clc1ccc(Oc2c(Cl)c(Cl)c(Cl)c(Cl)c2Cl)c(Cl)c1` yielded a logP of 7.31. `Clc1ccc(Cl)c(Oc2ccc(Cl)c(Cl)c2Cl)c1` gave a logP of 6.51. `Clc1cc(Oc2ccccc2)cc(Cl)c1Cl` showed a logP of 5.7. Molecule `Clc1cc(Cl)c(Oc2cc(Cl)c(Cl)cc2Cl)c(Cl)c1` has a logP of 6.49. In the case of `Clc1cc(Cl)cc(Oc2ccccc2)c1`, the logP is reported as 5.21. For `Clc1cc(Cl)c(Oc2ccccc2)c(Cl)c1Cl`, the logP was 5.88. In the case of `Clc1ccc(Oc2ccc(Cl)c(Cl)c2Cl)cc1`, the logP is reported as 6.14. With `Clc1c(Cl)c(Cl)c(Oc2ccccc2)c(Cl)c1Cl` the logP was 6.37. `Clc1ccc(Oc2c(Cl)cc(Cl)cc2Cl)cc1` gave a logP of 5.92. Molecule `Clc1cc(Cl)c(Oc2c(Cl)ccc(Cl)c2Cl)cc1Cl` has a logP of 6.47. `Clc1ccc(Oc2ccccc2Cl)cc1` showed a logP of 5.03. `Clc1ccc(Oc2cccc(Cl)c2)cc1` gave a logP of 5.13. `Clc1cc(Oc2c(Cl)ccc(Cl)c2Cl)cc(Cl)c1Cl` gave a logP of 6.65. `Clc1ccc(Oc2cc(Cl)ccc2Cl)c(Cl)c1` gave a logP of 5.78. `Clc1ccc(Oc2ccc(Cl)c(Cl)c2Cl)c(Cl)c1` gave a logP of 6.28. With `Clc1cc(Cl)c(Cl)c(Oc2ccccc2)c1` the logP was 5.62. With `Clc1ccc(Oc2cc(Cl)cc(Cl)c2Cl)c(Cl)c1` the logP was 6.54. Work on `Clc1ccc(Oc2cc(Cl)cc(Cl)c2)cc1` yielded a logP of 5.77. `Clc1ccccc1Oc1ccc(Cl)c(Cl)c1Cl` showed a logP of 5.72. With `Clc1cccc(Oc2ccc(Cl)cc2Cl)c1` the logP was 5.65. With `Clc1ccc(Oc2ccccc2Cl)c(Cl)c1` the logP was 4.96. For `Clc1cc(Oc2c(Cl)c(Cl)c(Cl)c(Cl)c2Cl)c(Cl)c(Cl)c1Cl`, the logP was 8.07. With `Clc1ccc(Oc2ccc(Cl)c(Cl)c2Cl)c(Cl)c1Cl` the logP was 6.82. With `Clc1cccc(Oc2ccc(Cl)c(Cl)c2)c1` the logP was 5.74. `Clc1ccc(Cl)c(Oc2ccc(Cl)c(Cl)c2)c1` showed a logP of 6.11. With `Clc1ccc(Oc2cccc(Cl)c2Cl)cc1Cl` the logP was 5.99. For `Clc1ccc(Oc2c(Cl)c(Cl)cc(Cl)c2Cl)c(Cl)c1Cl`, the logP was 7.14. Molecule `Clc1cc(Cl)cc(Oc2ccc(Cl)cc2Cl)c1` has a logP of 6.13. Molecule `Clc1ccc(Oc2ccc(Cl)cc2)cc1` has a logP of 5.25. For `Clc1cccc(Oc2ccc(Cl)c(Cl)c2Cl)c1Cl`, the logP was 6.3. `Clc1ccc(Oc2cccc(Cl)c2Cl)c(Cl)c1` gave a logP of 5.88. `Clc1cc(Cl)c(Oc2cc(Cl)c(Cl)c(Cl)c2)cc1Cl` showed a logP of 7.11. For `Clc1cc(Cl)c(Cl)c(Oc2cc(Cl)c(Cl)c(Cl)c2)c1`, the logP was 7.01. For `Clc1ccc(Oc2c(Cl)cccc2Cl)cc1Cl`, the logP was 5.7. Work on `Clc1ccc(Oc2c(Cl)cc(Cl)cc2Cl)c(Cl)c1` yielded a logP of 6.11. In the case of `Clc1ccc(Oc2c(Cl)cc(Cl)c(Cl)c2Cl)cc1`, the logP is reported as 6.47. With `Clc1ccc(Oc2ccccc2)c(Cl)c1Cl` the logP was 5.55. With `Clc1ccc(Oc2cc(Cl)c(Cl)cc2Cl)c(Cl)c1` the logP was 6.38. `Clc1cc(Cl)c(Oc2cc(Cl)c(Cl)cc2Cl)cc1Cl` showed a logP of 6.72. With `Clc1cc(Cl)cc(Oc2ccc(Cl)c(Cl)c2Cl)c1` the logP was 6.58. With `Clc1cc(Cl)c(Oc2c(Cl)c(Cl)cc(Cl)c2Cl)cc1Cl` the logP was 7.13. With `Clc1cc(Oc2ccc(Cl)c(Cl)c2Cl)cc(Cl)c1Cl` the logP was 6.99. With `Clc1cc(Cl)c(Oc2ccc(Cl)c(Cl)c2Cl)cc1Cl` the logP was 7.01. Molecule `Clc1cc(Cl)c(Oc2cccc(Cl)c2Cl)cc1Cl` has a logP of 6.22.

Same assay, conditions: 25 °C
For `Clc1ccc(Oc2ccccc2Cl)cc1Cl`, the solubility was 6.32 µM (≈ 1.73 µg/mL). `Clc1ccc(Oc2cc(Cl)ccc2Cl)cc1` showed a solubility of 3.63 µM (≈ 0.993 µg/mL). Molecule `Clc1ccc(Oc2ccccc2)cc1Cl` has a solubility of 19 µM (≈ 4.55 µg/mL). For `Clc1ccc(Oc2ccc(Cl)c(Cl)c2)cc1`, the solubility was 2.19 µM (≈ 0.598 µg/mL). `Clc1ccc(Oc2ccccc2)c(Cl)c1` showed a solubility of 23.4 µM (≈ 5.6 µg/mL). Work on `Clc1cccc(Cl)c1Oc1ccccc1` yielded a solubility of 8.7 µM (≈ 2.08 µg/mL). With `Clc1ccccc1Oc1ccccc1` the solubility was 16.6 µM (≈ 3.4 µg/mL). `Clc1ccc(Oc2ccc(Cl)cc2Cl)cc1` gave a solubility of 0.603 µM (≈ 0.165 µg/mL). `Clc1cccc(Oc2ccccc2)c1` showed a solubility of 61.6 µM (≈ 12.6 µg/mL). Work on `Clc1ccc(Oc2c(Cl)cccc2Cl)cc1` yielded a solubility of 1.23 µM (≈ 0.337 µg/mL). With `Clc1ccc(Cl)c(Oc2ccccc2)c1` the solubility was 10.7 µM (≈ 2.56 µg/mL). `Clc1ccc(Oc2cccc(Cl)c2Cl)cc1` gave a solubility of 4.9 µM (≈ 1.34 µg/mL). Molecule `Clc1cc(Cl)cc(Oc2ccccc2)c1` has a solubility of 8.7 µM (≈ 2.08 µg/mL). With `Clc1ccc(Oc2ccccc2Cl)cc1` the solubility was 3.02 µM (≈ 0.722 µg/mL). In the case of `Clc1ccc(Oc2cccc(Cl)c2)cc1`, the solubility is reported as 17 µM (≈ 4.06 µg/mL). `Clc1cc(Cl)c(Cl)c(Oc2ccccc2)c1` gave a solubility of 6.47 µM (≈ 1.77 µg/mL). In the case of `Clc1ccc(Oc2cc(Cl)cc(Cl)c2)cc1`, the solubility is reported as 3.02 µM (≈ 0.826 µg/mL). `Clc1cccc(Oc2ccc(Cl)cc2Cl)c1` showed a solubility of 3.62 µM (≈ 0.99 µg/mL). `Clc1ccc(Oc2ccccc2Cl)c(Cl)c1` gave a solubility of 11.2 µM (≈ 3.07 µg/mL). `Clc1cccc(Oc2ccc(Cl)c(Cl)c2)c1` showed a solubility of 3.66 µM (≈ 1 µg/mL).
